Tested on: solid malignant tumors
Assay: GEN1046 Phase I dose escalation (NCT03917381), response by RECIST v1.1
Type: in vivo, human
Source text: The resistance to, failure to respond to and/or relapse from treatment with a binding agent of the invention and/or other therapeutic agent(s) may be determined according to the Response Evaluation Criteria In Solid Tumors; version 1.1 (RECIST Criteria v1.1).
The “best overall response” is the best response recorded from the start of the treatment until disease progression/recurrence (the smallest measurements recorded since the treatment started will be used as the reference for PD). Subjects with CR or PR are considered to be objective response. Subjects with CR, PR or SD are considered to be in disease control. Subjects with NE are counted as non-responders. […]
Clinical trial on GCT1046-01 (ClinicalTrials.gov Identifier: NCT03917381) was designed as a two-part trial, including an ongoing dose escalation part and a planned expansion part.
The trial consists of 2 parts; a First-in-Human (FIH) dose escalation (Phase I) and an expansion (Phase 11a).
For dose escalation, subject was required to be a man or […] and was required to have measurable disease according to RECIST 1.1.

[1] = six patients with NSCLC, prior checkpoint immunotherapy

For “GEN1046: PD-L1×4-1BB bispecific antibody: PD-L1-547-FEAL combined with CD137-009-HC7LC2-FEAR (SEQ ID NOs: 1, 5, 21, 19; 8, 12, 22, 20)”, the “Confirmed PD (Progressive Disease), patients” value (800 mg (N 9), Oct. 12, 2020) was 2, the “Confirmed PR (Partial Response), patients” value (800 mg (N 9), Oct. 12, 2020) was 0 and the “Confirmed SD (Stable Disease), % of patients” value (shortened to “Confirmed SD … % of patients”) (800 mg (N 9), Oct. 12, 2020) was 55.6%. The “Confirmed SD (Stable Disease), patients” value (800 mg (N 9), Oct. 12, 2020) was 5, the “Disease Control (PR + PR + SD) Rate, %” value (800 mg (N 9), Oct. 12, 2020) was 55.6% and the “Disease Control (PR + PR + SD) Rate, patients” value (800 mg (N 9), Oct. 12, 2020) was 5. For the same substance, the “NE (Not Evaluable), % of patients” value (800 mg (N 9), Oct. 12, 2020) was 22.2%, the “NE (Not Evaluable), patients” value (800 mg (N 9), Oct. 12, 2020) was 2 and the “Objective Response (CR + PR) Rate, patients” value (800 mg (N 9), Oct. 12, 2020) was 0. For the same substance, the “PD (Progressive Disease), % of patients” value (800 mg (N 9), Oct. 12, 2020) was 22.2%, the “PD (Progressive Disease), patients” value (800 mg (N 9), Oct. 12, 2020) was 2 and the “PR (Partial Response), patients” value (800 mg (N 9), Oct. 12, 2020) was 0. The “CR (Complete Response), patients” value (1200 mg (N 4), Oct. 12, 2020) was 0, the “Confirmed CR (Complete Response), patients” value (1200 mg (N 4), Oct. 12, 2020) was 0 and the “Confirmed Disease Control (PR + PR + SD) Rate, %” value (1200 mg (N 4), Oct. 12, 2020) was 75.0%. For the same substance, the “Confirmed Disease Control (PR + PR + SD) Rate, patients” value (1200 mg (N 4), Oct. 12, 2020) was 3, the “Confirmed NE (Not Evaluable), patients” value (1200 mg (N 4), Oct. 12, 2020) was 0 and the “Confirmed Objective Response (CR + PR) Rate, patients” value (1200 mg (N 4), Oct. 12, 2020) was 0. The “Confirmed PD (Progressive Disease), % of patients” value (1200 mg (N 4), Oct. 12, 2020) was 25.0%, the “Confirmed PD (Progressive Disease), patients” value (1200 mg (N 4), Oct. 12, 2020) was 1 and the “Confirmed PR (Partial Response), patients” value (1200 mg (N 4), Oct. 12, 2020) was 0. The “Confirmed SD … % of patients” value (1200 mg (N 4), Oct. 12, 2020) was 75.0%, the “Confirmed SD (Stable Disease), patients” value (1200 mg (N 4), Oct. 12, 2020) was 3 and the “Disease Control (PR + PR + SD) Rate, %” value (1200 mg (N 4), Oct. 12, 2020) was 75.0%. The “Disease Control (PR + PR + SD) Rate, patients” value (1200 mg (N 4), Oct. 12, 2020) was 3, the “NE (Not Evaluable), patients” value (1200 mg (N 4), Oct. 12, 2020) was 0 and the “Objective Response (CR + PR) Rate, patients” value (1200 mg (N 4), Oct. 12, 2020) was 0. The “PD (Progressive Disease), % of patients” value (1200 mg (N 4), Oct. 12, 2020) was 25.0%, the “PD (Progressive Disease), patients” value (1200 mg (N 4), Oct. 12, 2020) was 1 and the “PR (Partial Response), patients” value (1200 mg (N 4), Oct. 12, 2020) was 0. For the same substance, the “Partial responses, patients” value (ICI pre-treated NSCLC) was 2, the “CR (Complete Response), patients” value (Total (N 61), Oct. 12, 2020) was 0 and the “Confirmed CR (Complete Response), patients” value (Total (N 61), Oct. 12, 2020) was 0. The “Confirmed Disease Control (PR + PR + SD) Rate, %” value (Total (N 61), Oct. 12, 2020) was “(65.6%)”, the “Confirmed Disease Control (PR + PR + SD) Rate, patients” value (Total (N 61), Oct. 12, 2020) was 40 and the “Confirmed NE (Not Evaluable), % of patients” value (Total (N 61), Oct. 12, 2020) was “(11.5%)”. For the same substance, the “Confirmed NE (Not Evaluable), patients” value (Total (N 61), Oct. 12, 2020) was 7, the “Confirmed Objective Response (CR + PR) Rate, %” value (Total (N 61), Oct. 12, 2020) was “(3.3%)” and the “Confirmed Objective Response (CR + PR) Rate, patients” value (Total (N 61), Oct. 12, 2020) was 2. The “Confirmed PD (Progressive Disease), % of patients” value (Total (N 61), Oct. 12, 2020) was “(23.0%)”, the “Confirmed PD (Progressive Disease), patients” value (Total (N 61), Oct. 12, 2020) was 14 and the “Confirmed PR (Partial Response), % of patients” value (Total (N 61), Oct. 12, 2020) was “(3.3%)”. The “Confirmed PR (Partial Response), patients” value (Total (N 61), Oct. 12, 2020) was 2, the “Confirmed SD … % of patients” value (Total (N 61), Oct. 12, 2020) was “(62.3%)” and the “Confirmed SD (Stable Disease), patients” value (Total (N 61), Oct. 12, 2020) was 38. For the same substance, the “Disease Control (PR + PR + SD) Rate, patients” value (Total (N 61), Oct. 12, 2020) was 40, the “NE (Not Evaluable), % of patients” value (Total (N 61), Oct. 12, 2020) was “(11.5%)” and the “NE (Not Evaluable), patients” value (Total (N 61), Oct. 12, 2020) was 7. For the same substance, the “Objective Response (CR + PR) Rate, %” value (Total (N 61), Oct. 12, 2020) was “(6.6%)”, the “Objective Response (CR + PR) Rate, patients” value (Total (N 61), Oct. 12, 2020) was 4 and the “PD (Progressive Disease), % of patients” value (Total (N 61), Oct. 12, 2020) was “(23.0%)”. The “PD (Progressive Disease), patients” value (Total (N 61), Oct. 12, 2020) was 14, the “PR (Partial Response), % of patients” value (Total (N 61), Oct. 12, 2020) was “(6.6%)” and the “BOR Complete Response, (percent)” value (Total (n = 30), 3 Feb. 2020) was “(0)”. The “BOR Complete Response, patients” value (Total (n = 30), 3 Feb. 2020) was 0, the “BOR Partial Response, (percent)” value (Total (n = 30), 3 Feb. 2020) was “(10)” and the “BOR Partial Response, patients” value (Total (n = 30), 3 Feb. 2020) was 3. For the same substance, the “BOR Progressive Disease, (percent)” value (Total (n = 30), 3 Feb. 2020) was “(26.6)”, the “BOR Progressive Disease, patients” value (Total (n = 30), 3 Feb. 2020) was 8 and the “BOR Stable Disease, (percent)” value (Total (n = 30), 3 Feb. 2020) was “(63.3)”. For the same substance, the “BOR Stable Disease, patients” value (Total (n = 30), 3 Feb. 2020) was 19, the “Partial responses, patients” value (ovarian cancer) was 1 and the “Patients who maintained stable disease” value [1] was “two”. The “Patients with progressive disease” value [1] was “two”, the “Patients with unconfirmed PR” value [1] was “two” and the “Partial responses, patients” value (triple negative breast cancer) was 1.

Reference: US20240109972A1, “ANTIBODY AND TAXANE COMBINATION THERAPY” (Genmab A/S, priority 2020, published 2024)
